Assay results published in patent US20210379062A1, “The use of a H3R inverse agonist for the treatment of excessive daytime sleepiness associated with parkinson's disease (PD)” (Novartis AG, priority 2018, published 2021).
pKi: −log10 of the molar value.

Columns and labels:
[1] = PK model (two-compartment, NONMEM) fitted to Phase I SAD/MAD concentrations; format: in vivo, human
Experimental: PK data (drug concentration over time) from Part 1 and Part 2 of the Phase I study were used in the development of the model: • 1) Part 1 is the Single Ascending Dose part; 8 different cohorts were used, with each cohort composed of 6 active subjects and 2 placebo subjects. The dose amounts used in the 8 cohorts were 0.3, 1, 3, 10, 30, 100, 300 and 800 mg. Dosing was performed at time equal to 0 hours. Additional data from the Part 3 of the Phase I study (Mechanistic biomarker study, 100 mg single dose) were lumped with this group. • 2) Part 2 is the Multiple Ascending Dose part; 4 different cohorts were used, with each cohort composed of 9 active subjects and 3 placebo subjects. The dose amounts used in the 4 cohorts were 10, 30, 50 and 100 mg. Dosing was performed once a day (in the morning) at times equal to 0, 2, 3, 4, 5, 6, 7, 8, 9, 10, 11, 12, 13, 14, 15 days.
The analysis was performed using NONMEM VII version 3 (Icon Development Solutions, Ellicott City, Md., USA), utilizing the MODESIM high performance computing environment. Pirana software was used for model editing and model submission to the cluster for running. All model building was performed using the first order conditional estimation with interaction (FOCEi) method.
A two-compartment model with combined zeroth-order and first-order absorption was used to fit the Compound (I) concentrations. The disposition kinetics were modeled using a parameterization involving apparent oral clearance (CL/F), apparent central volume (Vc/F), apparent inter-compartment clearance (Q/F), and apparent peripheral volume (Vp/F). The duration of zero-order absorption (D), a first order absorption rate constant (Ka) and an absorption delay parameter (Lag) were used to characterize the absorption process.
Between-subject variability in pharmacokinetic parameters Vc/F, CL/F, Vp/F and Ka was modeled using multiplicative exponential random effects of the form:
Residual variability was modeled using a proportional error model: […]

H3 receptor = assay: Ex vivo receptor occupancy assay in rat frontal cortex; conditions: rats; for RO: 10 mg/kg oral
Experimental: Male Sprague-Dawley rats (from Shanghai SLAC Laboratory Animal CO. LTD) at the age of 5-6 weeks were used. The animals were housed in a temperature and humidity-controlled environment on a 12 h light/dark cycle with food and water available ad libitum. All the procedures were approved by Institutional Animal Care and Use Committee of Chempartner Co., LTD (IACUC Protocol NO: A998HL0076).
Compounds were dissolved in 50 mM citrate buffer (pH 3.5), or saline. The compound was then diluted stepwise to the final concentration with vehicle. Animals were dosed by p.o. or i.v. in 1 ml/kg bodyweight.
At each time point, rats were decapitated immediately. Intact brain was removed, immersed and washed in pre-cooled saline. After drying with filter paper, frontal cortex was dissected with a double-blade with an about 30° angle starting at ⅓ of anterior rat brain (weight of most brain tissues around 70±10 mg). Brain tissue was transferred into a pre-weighed tube with homogenizer beads. The tubes were weighed again and the tissue net weight was recorded. Tissue sampling was done on ice with intervals of 1 min. Then, 50 mM HEPES (Gibco® by Life Technologies) buffer were added (equivalent to 3.75 μl/mg tissue weight) followed by homogenization (frequency 30/sec for 20 sec, TissueLyser, Quiagen).
The crude homogenate samples of rat frontal cortex were used to measure H3 receptor binding as described above with [^3H]—N-α-methylhistamine as radioligand. The protein concentration of each sample was determined by Pierce BCA Protein Assay Kit (Thermo).
The cortical homogenate was added to a 96-well plate containing [^3H]—N-α-methylhistamine (0.1 nM), in a volume of 0.2 ml (final protein concentration 4 μg/μl), incubated at 28° C. for 15 min and the reaction was stopped by rapid filtration using a filtration plate (Millipore multiscreen GF/B plate). The filters were washed three times with ice-cold wash buffer (50 mM Tris, pH 7.5) and 250 μl of Microscint-40 were added followed by determination of the bound radiolabel with a Wallac Microbeta Trilux 2450 (Perkin Elmer). Nonspecific binding was determined in the presence of 10 μM thioperamide. Each data point was obtained from a total of at least four animals. The inhibition of specific [^3H]NAMH binding, calculated as relative to vehicle-treated samples, was determined to provide an indication of receptor occupancy by the compound. The dose-dependent % RO and time course were analyzed using GraphPad Prism. The dose response was fit using GraphPad Prism: log(inhibitor) vs. response with variable slope.

Rat brain and plasma PK = format: in vivo; conditions: 10 mg/kg oral, rats
[2] = target: T1, Human histamine H3 receptor (Homo sapiens, UniProt Q9Y5N1); assay: Radioligand binding assay with [3H]-N-α-methylhistamine
T1 construct: purchased PerkinElmer
Experimental: Human histamine H3 receptor membrane (PerkinElmer) were incubated with 1.0 nM [^3H]—N-α-methylhistamine (PerkinElmer) in the presence or absence of increasing concentrations of ligands for H3 receptor competition binding. The binding incubations were in a final volume of 0.1 ml buffer (50 mMTris pH 7.5, 5 mM MgCl2) at 28° C. for 120 minutes. Thioperamide (10 μM) was used to define non-specific binding.
All binding reactions were terminated by transferring 70 μl binding reaction from the reaction plate into filtration plates (Zeba 96-well Spin Desalting Plates, Thermo Scientific), followed by centrifugation at 1000 g for 2 min to collect the protein with bound radioligand. 200 μl of microscint-40 were added to determine the bound radiolabel by a Wallac Microbeta Trilux 2450 (Perkin Elmer). For all radioligand competition binding assays, IC50 values and Hill slopes were determined by GraphPad Prism: log(inhibitor) vs. response with variable slope. Ki was calculated using the equation in Biochem. Pharmacol. 1973. 22 (23), 3099-3108, from Cheng and Prusoff: Ki=IC50/{1+([radioligand]/Kd)}.

T1 sequence (Q9Y5N1 whole entry): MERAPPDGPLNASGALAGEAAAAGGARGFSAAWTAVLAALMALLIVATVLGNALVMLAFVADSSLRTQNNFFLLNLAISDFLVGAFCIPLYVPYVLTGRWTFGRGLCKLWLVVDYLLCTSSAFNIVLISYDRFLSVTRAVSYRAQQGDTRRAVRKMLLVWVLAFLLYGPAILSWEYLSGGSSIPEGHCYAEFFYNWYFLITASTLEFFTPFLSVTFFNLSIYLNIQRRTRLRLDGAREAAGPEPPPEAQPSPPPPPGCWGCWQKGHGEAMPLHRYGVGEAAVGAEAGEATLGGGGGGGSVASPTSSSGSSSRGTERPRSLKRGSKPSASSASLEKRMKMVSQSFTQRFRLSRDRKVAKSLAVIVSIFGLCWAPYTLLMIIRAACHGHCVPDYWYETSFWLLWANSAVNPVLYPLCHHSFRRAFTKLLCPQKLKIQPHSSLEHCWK

SMILES: Cn1nc(N2CCC(OC(=O)N3CCN(C4CCC4)CC3)CC2)ccc1=O [Compound (I), 1-(1-methyl-6-oxo-1,6-dihydropyridazin-3-yl)piperidin-4-yl 4-cyclobutylpiperazine-1-carboxylate]
- CL/F (apparent oral clearance) ([1]; PK model estimate): 22.8 L/h
- D (duration of zero-order absorption) ([1]; PK model estimate): 0.108 h
- Ka (first-order absorption rate constant) ([1]; PK model estimate): 2.44 h⁻¹
- Lag (absorption delay) ([1]; PK model estimate): 0.214 h
- Q/F (apparent inter-compartment clearance) ([1]; PK model estimate): 1.26 L/h
- Residual Unexplained Variability ([1]; PK model estimate): 34.8%
- VC/F (apparent central volume) ([1]; PK model estimate): 121 L
- VP/F (apparent peripheral volume) ([1]; PK model estimate): 18.4 L
- Omega CL/F ([1]; between-subject variability): 40.37 % CV
- Omega Ka ([1]; between-subject variability): 145 % CV
- Omega Vc/F ([1]; between-subject variability): 23.71 % CV
- Omega Vp/F ([1]; between-subject variability): 46.48 % CV
- RO (H3 receptor; 1 h time point (initial RO)): 95%
- RO (H3 receptor; 4 h): 50%
- RO (H3 receptor; 4 h, listed as LML134): 39%
- RO (H3 receptor; 8 h): 0%
- RO (H3 receptor; 8 h, listed as LML134): almost not RO was detectable
- dose that resulted in H3 receptor occupancy of 80-90% (H3 receptor; oral dosing, 1 h after compound administration): 10 mg/kg
- total brain exposure (Rat brain and plasma PK): intermediate
- brain exposure (Rat brain and plasma PK; 8 h time point): close to detection limit
- concentration at 4 h (Rat brain and plasma PK; male, Sprague-Dawley, rat, brain, 4 h time point, read-out: brain exposure): 21 ng/g
- affinity fold higher compared to bavisant ([2]; human H3 receptors): 12 fold
- affinity fold higher compared to pitolisant ([2]; human H3 receptors): 18 fold
- pKi ([2]; human recombinant H3R, 1.0 nM [3H]-N-α-methylhistamine, Cheng-Prusoff): 8.07
